These results are taken from publication PMC13249469, “High-throughput ligand diversification to discover chemical inducers of proximity” (Nature Chemical Biology, 2026).

This assay deals with T1, CRBN (Cereblon) (Homo sapiens, UniProt Q96SW2).
T1 construct: CRBN–DDB1; with DDB1
As to the kind of experiment: competitive FP displacement of BODIPY-labelled IMiD probe, without ENL YEATS. It counts as binding.

The compound `O=C(COc1cccc2c1C(=O)N(C1CCC(=O)NC1=O)C2=O)NCCOCCOCCNS(=O)(=O)Nc1cccc(-c2cn3cc(C(=O)NC4CCC4)ccc3n2)c1` (stereo not shown) [SR-1114] displayed an IC50 of 155 nM. In other words, the sub-micromolar range.

Broadly, the IC50 is the point on the concentration scale where inhibition reaches its midpoint. Low readings indicate inhibition by little substance, high ones a need for much substance.
